Patent US20160129155A1, “MUSCULOSKELETAL TISSUE FABRICATION” (University of Pittsburgh - Of the Commonwealth System of …, priority 2014, published 2016)

Columns and labels:
[1] = tested on: engineered osteochondral constructs; test: IL-1β treatment of engineered osteochondral constructs, real time PCR; type: cell-based, human; details: 10 ng/ml, 7 days
Procedure: Real time PCR. Chondral and osseous constructs were collected separately. To avoid the potential contamination, the bonded margin of each construct was cut away using a razor blade. Total RNA was extracted using Trizol (Invitrogen) following the standard protocol and purified with the RNeasy Plus mini kit (Qiagen, Hilden, Germany). SuperScript III kit (Invitrogen) was utilized with random hexamer primers to complete the reverse transcription. Real-time RT-PCR was performed using the StepOnePlus thermocycler (Applied Biosystems, Foster City, Calif.) and SYBR Green Reaction Mix (Applied Biosystems). Sox 9, Aggrecan (ACN) and collagen type II (COL2A1), RunX2, Osteocalcin (OCN), Bone sialoprotein (BSP II) expression were analyzed. Monolayers of hBMSCs cultured in GM on 2D tissue culture plastic were used as negative controls. Transcript level of 18S rRNA was used as endogenous control: […], Gene expression folder changes were calculated using the Comparative CT (ΔΔCT) method.
(§1) IL-1β treatment in engineered micro-osteochondral constructs. After 4 weeks of differentiation, engineered the osteochondral constructs were treated with IL-1β […], R&D) on the chondral or osseous sides only to investigate the cell/neo-tissue response to pro-inflammatory cytokines and possible communication through the osteochondral construct. The media used in this test were CM without TGF-β3 (chondral) and OM without BMP-2 (osseous) both supplemented with 5 ng/ml There were experimental groups: (1) CM/GM, (2) CM+IL1-1β/GM, (3) CM/GM+IL1-1β. The treatment lasted 7 days, with effluent medium collected and frozen at 1, 7 days for ELISA. After 7 days, the osteochondral constructs were bisected into the chondral and osseous halves and processed for gene expression analysis as described before. In addition to tissue specific gene expression, matrix metalloproteinase 1, 3, 13 were also analyzed.
(§2) IL1β treatment on engineered osteochondral tissue. As described above, the microtissue bioreactor presented here, with its two separate medium flow systems and biphasic construct compartments, has the capability for targeted treatment of one (or both) tissue construct(s) with soluble factors. Osseous and chondral components were separately treated with the pro-inflammatory cytokine IL-1β (10 ng/ml) for 7 days (control conditions consisted of untreated osteochondral constructs), and the responses of each of the two components were separately analyzed. Media samples were collected from chondral and osseous components streams at day 1 and 7, and, after day 7, the osteochondral constructs were separated into osseous and chondral components, and each was separately analyzed for gene expression of catabolic genes (MMP-1, MMP-3, MMP-13) and either cartilage markers (Sox9, Col2, aggrecan) (FIG. 20) or bone markers (RUNX2, osteocalcin, BSPII) (FIG. 21). Media samples from the chondral and osseous components stream collected at days 1 and 7 were analyzed via MMP-1, MMP-3, and MMP-13 ELISAs (FIG. 22).

[2] = tested on: engineered osteochondral constructs; test: IL-1β treatment of engineered osteochondral constructs, MMP ELISA of medium; type: cell-based, human
Procedure: as §1
Enzyme-linked immunosorbent assay (ELISA). Media was collected separately from chondral and osseous constructs, cleared of cell debris via centrifugation (1000×g), and analyzed via IL-1β (Abcam, Cambridge, Mass.), MMP-1 (R&D), MMP-3 (Abcam, Cambridge, Mass.), and MMP-13 (Abcam) ELISAs according to the manufacturers' instructions.
as §2

[3] = tested on: hASCs; test: Chondrogenesis of hASCs in VL-PSL constructs (RT-PCR, hydroxyproline, histology, IHC); type: cell-based, human
Procedure: (§3) The fabricated constructs were detached from the platform and washed 3 times to remove uncured polymer solution. The constructs were cultured in control medium (CM, DMEM with 1% L-alanyl-L-glutamine, 55 μM sodium pyruvate, 1× antibiotic-antimycotic, and 1% Insulin-Transferrin-Selenium (ITS)) or chondrogenic medium (CGM, CM supplemented with 10 ng/ml transforming growth factor-β3 (TGF-β3), 100 nM dexamethasone, 50 μM L-ascorbic acid 2-phosphate, and 23 μM L-proline) up to 28 days, which were designated as Control or TGF-β3 group, respectively.
Total RNA of the cells within the constructs was isolated using TRIZOL reagent and purified. Reverse transcription reactions were performed. Real-time PCR was performed with a thermocycler. All sample values were normalized to 18S rRNA using the 2^−ΔΔCt method.
Total collagen content deposited within the constructs was determined by measuring hydroxylproline levels. The constructs (5 mm diameter and 2 mm thickness) were homogenized in water by grinding and hydrolyzed using the same volume of 12N HCl at 120° C. for 3 hours. Hydroxyproline content in constructs was quantitated using a Hydroxyproline Colorimetric Assay Kit.
After 28 days culture, constructs were removed from the incubator, washed twice, and fixed in buffered paraformaldehyde (4%) for 1 day at room temperature. After washed with PBS for 3 times, they were then cryosectioned using a cryostat at 8 μm thickness. For assessment of glycosaminoglycan deposition, the slides were stained with either Alcian Blue or Safranin-O/Fast Green following standard protocols.
Enzymatic antigen retrieval was performed using chondroitinase/hyaluronidase (1 mg/ml and 5 mg/ml) at 37° C. for 30 min, and was suppressed with 1% horse serum in PBS for 45 min. After blocking endogenous peroxidase (3% H2O2 in methanol for 10 min) and nonspecific binding (1% horse serum), slices were incubated with primary antibodies against collage type II overnight at 4° C. After washing, biotinylated secondary antibodies were applied for 30 min. Staining was developed by treating samples with horseradish peroxidase (HRP)-conjugated streptavidin/NovaRED™ peroxidase substrate.

[4] = tested on: hASCs; type: cell-based; details: 28 days
Procedure: P3 hASCs were pelleted by centrifugation and the supernatant was completely removed. The polymer solution prepared above was used to re-suspend hASCs at 4×10^6cells/ml, and then the cell-polymer solution was immediately poured into the basement plate of the PSL device for printing with different 3D models as the template.
as §3
At various time points post-fabrication, cell viability was assessed with the Live/Dead Viability/Cytotoxicity kit as examined by epifluorescence microscopy. The percentage of live cells was calculated as the number of green-staining cells divided by the total number of cells (green & red staining cells).

[5] = IL-1β treatment of chondral construct
[6] = IL-1β treatment of osseous component
[7] = day 28, TGF-β3 group versus control group

Substance	MMPs production in the osseous construct [1, 5]	osseous construct expression of osteocalcin and BSPII [1, 5]	chondral construct expression of Sox9, Col2 and aggrecan ([1]; IL-1β treatment of chondral constructs)	chondral construct expression of MMP-1, MMP-3 and MMP-13 [1, 6]	chondral construct expression of Sox9, Col2 and aggrecan ([1]; IL-1β treatment of osseous constructs)	osseous construct MMP secretion response ([2]; IL-1β treatment of chondral component, days 1 and 7)	chondral MMP-1, MMP-3 and MMP-13 secretion [2, 6]	chondral MMP-1 response time [2, 6] [days]	chondral MMP-13 response time [2, 6] [days]	Alcian Blue and Safranin O staining (GAG) ([3]; day 28, TGF-β3 group)	IHC for collagen type II ([3]; day 28, TGF-β3 group)	hydroxyproline level ([3]; day 28, TGF-β3 group) [μg/construct]	Runx2 expression [3, 7]	expression of Sox 9, aggrecan and collagen II [3, 7]	cell viability ([4]; chondrogenic medium supplemented with TGF-β3) [%]	cell proliferation by MTS assay ([4]; chondrogenic medium with TGF-β3)
interleukin-1β [IL-1β]	increases	decreases	decreases	increased substantially	decreased	quick yet increased further over time	increases	7	≤ 1	–	–	–	–	–	–	–
transforming growth factor-β3 [TGF-β3]	–	–	–	–	–	–	–	–	–	dense, strong staining	positive staining	21.16±7.15	higher in the control group	significantly higher	77	promoted cell proliferation
